Earlier results, collected in patent US12005095B2, “Eutectic extraction solvents, extraction methods by eutectigenesis using said solvents, and extracts derived from said extraction methods” (Givaudan France Naturals SAS, priority 2015, dated 2024).

System: cellular melanogenesis

In the case of `O=C1c2c(O)cc(O)cc2O[C@H](c2ccc(O)c(O)c2)[C@H]1O` [taxifolin], the “effect on cellular melanogenesis, in words” value is given as “inhibit cellular melanogenesis”.
